Test results reported in US8901118B2, “Compounds and methods for kinase modulation, and indications therefor” (Plexxikon Inc., priority 2010, dated 2014).

Legend:
c-Kit kinase = c-Kit kinase (Homo sapiens, UniProt P10721); test: c-Kit kinase biochemical activity assay (AlphaScreen, biotin-(E4Y)10 phosphorylation); conditions: 100 μM ATP; read-out: Biochemical Inhibition IC50 Kit
How it was run: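 Phosphorylation of 30 nM biotin-(E4Y)10 by c-Kit (0.75 ng per reaction) with 100 µM ATP in HEPES pH 7.5 buffer with Mg2+/Mn2+, 5% DMSO, 1 h at room temperature; 8-point 1:2 compound dilutions. AlphaScreen detection with streptavidin donor and PY20 acceptor beads after EDTA stop. IC50 from signal versus concentration.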

BCR-FMS BaF3 cells = target: T1, BCR-FMS BaF3 cells (Homo sapiens, UniProt P07333); test: BaF3 BCR-FMS cell proliferation assay (ATPlite); type: cell-based; conditions: read-out: Inhibition of Cell Proliferation IC50, BCR/BaF3 Fms
T1 construct: fused on or other part: P11274 (Breakpoint cluster region protein)
T1 sequence (P07333 582-910): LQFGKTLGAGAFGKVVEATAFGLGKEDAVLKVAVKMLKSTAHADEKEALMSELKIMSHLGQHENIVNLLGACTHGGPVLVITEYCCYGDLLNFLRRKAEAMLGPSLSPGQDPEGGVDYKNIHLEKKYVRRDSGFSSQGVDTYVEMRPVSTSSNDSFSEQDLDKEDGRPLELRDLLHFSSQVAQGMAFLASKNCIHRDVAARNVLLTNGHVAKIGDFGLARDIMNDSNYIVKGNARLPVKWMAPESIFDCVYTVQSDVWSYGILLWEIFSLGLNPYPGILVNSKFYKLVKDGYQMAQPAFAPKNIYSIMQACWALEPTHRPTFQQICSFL
How it was run: (§1)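 ATP-based luminescence (ATPlite), read after 10 min at room temperature, served as a proxy for cell number, and IC50 was fitted against compound concentration. Before that, cells were treated for 3 days with an 8-point 1:3 dilution series starting at 10 μM. BaF3 cells were plated at 10,000/well without IL-3, and MV-4-11 cells at 25,000/well.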

BCR-NTRK1 BaF3 cells = target: T2, BCR-NTRK1 BaF3 cells (Homo sapiens, UniProt P04629); test: BaF3 BCR-NTRK1 cell proliferation assay (ATPlite); type: cell-based; conditions: read-out: Inhibition of Cell Proliferation IC50, BCR/BaF3 TrkA
T2 construct: fused on or other part: P11274 (Breakpoint cluster region protein)
How it was run: as §1

Chain of c-Kit kinase (P10721 26-976): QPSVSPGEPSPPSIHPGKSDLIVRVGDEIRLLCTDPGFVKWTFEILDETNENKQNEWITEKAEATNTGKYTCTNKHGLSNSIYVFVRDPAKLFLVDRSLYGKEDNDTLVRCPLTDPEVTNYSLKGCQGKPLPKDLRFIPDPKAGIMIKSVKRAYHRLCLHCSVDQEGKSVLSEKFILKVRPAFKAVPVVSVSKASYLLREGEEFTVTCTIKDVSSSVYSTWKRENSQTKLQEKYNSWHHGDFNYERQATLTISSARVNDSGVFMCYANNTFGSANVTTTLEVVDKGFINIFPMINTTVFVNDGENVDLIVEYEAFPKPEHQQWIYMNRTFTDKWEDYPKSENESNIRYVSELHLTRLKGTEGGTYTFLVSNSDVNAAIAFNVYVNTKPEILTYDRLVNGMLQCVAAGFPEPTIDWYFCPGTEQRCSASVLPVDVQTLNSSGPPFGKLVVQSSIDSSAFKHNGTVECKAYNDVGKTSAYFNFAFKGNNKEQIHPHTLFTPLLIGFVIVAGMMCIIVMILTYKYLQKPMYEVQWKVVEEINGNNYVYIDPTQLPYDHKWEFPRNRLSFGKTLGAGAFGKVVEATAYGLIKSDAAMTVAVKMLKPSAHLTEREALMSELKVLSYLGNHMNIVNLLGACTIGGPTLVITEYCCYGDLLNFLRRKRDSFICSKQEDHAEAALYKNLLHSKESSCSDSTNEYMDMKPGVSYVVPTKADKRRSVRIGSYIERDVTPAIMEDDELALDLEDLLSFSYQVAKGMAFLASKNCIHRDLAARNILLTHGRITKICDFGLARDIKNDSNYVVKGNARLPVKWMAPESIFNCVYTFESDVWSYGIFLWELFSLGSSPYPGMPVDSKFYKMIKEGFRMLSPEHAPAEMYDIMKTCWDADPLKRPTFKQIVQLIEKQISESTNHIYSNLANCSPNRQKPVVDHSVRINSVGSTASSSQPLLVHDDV
T2 sequence (P04629 510-781): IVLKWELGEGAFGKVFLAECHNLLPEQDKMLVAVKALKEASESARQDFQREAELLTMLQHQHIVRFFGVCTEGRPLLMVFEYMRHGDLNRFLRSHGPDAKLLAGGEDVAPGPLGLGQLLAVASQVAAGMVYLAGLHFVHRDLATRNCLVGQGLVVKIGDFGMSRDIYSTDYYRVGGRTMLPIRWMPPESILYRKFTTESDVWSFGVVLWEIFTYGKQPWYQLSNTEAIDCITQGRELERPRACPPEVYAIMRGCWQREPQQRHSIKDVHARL

Structure (SMILES)	IC50 (c-Kit kinase)	IC50 (BCR-FMS BaF3 cells)	IC50 (BCR-NTRK1 BaF3 cells)
Clc1cnc2[nH]cc(Cc3cnc(NC4CCC4)nc3)c2c1 [Compound P-3007, [5-(5-Chloro-1H-pyrrolo[2,3-b]pyridin-3-ylmethyl)-pyrimidin-2-yl]-cyclobutyl-amine]	> 1 µM	< 1 µM	> 10 µM
Cc1cnc2[nH]cc(Cc3ccc(NC4CCCCC4)nc3F)c2c1 [Compound P-3008, cyclohexyl-[6-fluoro-5-(5-methyl-1H-pyrrolo[2,3-b]pyridin-3-ylmethyl)-pyridin-2-yl]-amine]	< 1 µM	< 0.1 µM	
O=C(c1ccc(Nc2ccc(C3CC3)nc2)nc1F)c1c[nH]c2ncnc(C3CC3)c12 [Compound P-4040, [6-(6-Cyclopropyl-pyridin-3-ylamino)-2-fluoro-pyridin-3-yl]-(4-cyclopropyl-7H-pyrrolo[2,3-d]pyrimidin-5-yl)-methanone]	< 0.1 µM	< 0.1 µM	< 0.01 µM
Fc1nc(Nc2ccc(C3CC3)nc2)ccc1Cc1c[nH]c2ncnc(C3CC3)c12 [Compound P-4041, (6-Cyclopropyl-pyridin-3-yl)-[5-(4-cyclopropyl-7H-pyrrolo[2,3-d]pyrimidin-5-ylmethyl)-6-fluoro-pyridin-2-yl]-amine]	< 0.1 µM	< 0.01 µM	< 0.01 µM
Nc1ncnc2[nH]cc(C(=O)c3ccc(Nc4ccc(C5CC5)nc4)nc3F)c12 [Compound P-4048, (4-amino-7H-pyrrolo[2,3-d]pyrimidin-5-yl)-[6-[(6-cyclopropyl-3-pyridyl)amino]-2-fluoro-3-pyridyl]methanone]	< 0.01 µM	< 0.01 µM	< 1 µM
CC(C)(O)CNc1ncnc2[nH]cc(C(=O)c3ccc(Nc4ccc(C5CC5)nc4)nc3F)c12 [Compound P-4049, [6-[(6-cyclopropyl-3-pyridyl)amino]-2-fluoro-3-pyridyl]-[4-[(2-hydroxy-2-methyl-propyl)amino]-7H-pyrrolo[2,3-d]pyrimidin-5-yl]methanone]	< 1 µM	< 1 µM	< 1 µM
CCNc1ncnc2[nH]cc(C(=O)c3cnc(NC4CCC(F)(F)CC4)c(F)c3)c12 [Compound P-4051, [6-[(4,4-difluorocyclohexyl)amino]-5-fluoro-3-pyridyl]-[4-(ethylamino)-7H-pyrrolo[2,3-d]pyrimidin-5-yl]methanone]	< 1 µM	< 1 µM	< 1 µM
O=C(c1cnc(NC2CCC(F)(F)CC2)c(F)c1)c1c[nH]c2ncnc(NCC(F)(F)F)c12 [Compound P-4052, [6-[(4,4-difluorocyclohexyl)amino]-5-fluoro-3-pyridyl]-[4-(2,2,2-trifluoroethylamino)-7H-pyrrolo[2,3-d]pyrimidin-5-yl]methanone]	> 1 µM	< 1 µM	< 1 µM
O=C(c1cnc(NC2CCC(F)(F)CC2)c(F)c1)c1c[nH]c2ncnc(NC3CC3)c12 [Compound P-4053, [4-(cyclopropylamino)-7H-pyrrolo[2,3-d]pyrimidin-5-yl]-[6-[(4,4-difluorocyclohexyl)amino]-5-fluoro-3-pyridyl]methanone]	< 1 µM	< 1 µM	< 0.01 µM

Now from value to molecule:

IC50 (c-Kit kinase)	IC50 (BCR-FMS BaF3 cells)	IC50 (BCR-NTRK1 BaF3 cells)	Structure (SMILES)
< 1 µM	< 0.1 µM	< 1 µM	Nc1ncnc2[nH]cc(C(=O)c3ccc(NC4CCC(F)(F)CC4)nc3Cl)c12 [Compound P-4046, (4-amino-7H-pyrrolo[2,3-d]pyrimidin-5-yl)-[2-chloro-6-[(4,4-difluorocyclohexyl)amino]-3-pyridyl]methanone]
> 1 µM	> 1 µM	> 1 µM	CC(C)=CNc1ncnc2[nH]cc(C(=O)c3ccc(NC4CCC(F)(F)CC4)nc3Cl)c12 [Compound P-4047, [2-chloro-6-[(4,4-difluorocyclohexyl)amino]-3-pyridyl]-[4-(2-methylprop-1-enylamino)-7H-pyrrolo[2,3-d]pyrimidin-5-yl]methanone]
< 1 µM	< 1 µM	< 1 µM	CCNc1ncnc2[nH]cc(C(=O)c3ccc(NC4CCC(F)(F)CC4)nc3Cl)c12 [Compound P-4050, [2-chloro-6-[(4,4-difluorocyclohexyl)amino]-3-pyridyl]-[4-(ethylamino)-7H-pyrrolo[2,3-d]pyrimidin-5-yl]methanone]
> 1 µM	< 1 µM	< 1 µM	CNc1ncnc2[nH]cc(C(=O)c3cnc(NC4CCC(F)(F)CC4)c(F)c3)c12 [Compound P-4054, [6-[(4,4-difluorocyclohexyl)amino]-5-fluoro-3-pyridyl]-[4-(methylamino)-7H-pyrrolo[2,3-d]pyrimidin-5-yl]methanone]
